Assay results reported in the supplement of paper PMC3937590.

What was measured:
Assay in all cases: -log10 GI50 (growth inhibition 50%) (-log10(M)); higher = more potent growth inhibition
[1] = test system: MCF7
How it was run: (§1)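 Dose-response data came from breast cancer cell lines exposed to each compound for 72 hours at nine doses in 1:5 serial dilution, in triplicate, and read by luminescence relative to a time-zero plate. A Gompertz curve fitted by nonlinear least squares gave GI50, the molar concentration for the set level of growth inhibition, reported as its negative logarithm to base 10. Where a value equals the top dose, it carries a < qualifier.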

[2] = test system: HCC1187
How it was run: as §1

[3] = test system: HCC1806
How it was run: as §1

[4] = test system: LY2
How it was run: as §1

[5] = test system: HCC3153
How it was run: as §1

[6] = test system: HCC2185
How it was run: as §1

[7] = test system: MDAMB361
How it was run: as §1

[8] = test system: MCF10F
How it was run: as §1

[9] = test system: HS578T
How it was run: as §1

[10] = test system: SUM149PT
How it was run: as §1

[11] = test system: BT474
How it was run: as §1

[12] = test system: HCC1143
How it was run: as §1

[13] = test system: HCC1569
How it was run: as §1

[14] = test system: ZR75B
How it was run: as §1

[15] = test system: SUM225CWN
How it was run: as §1

[16] = test system: BT549
How it was run: as §1

[17] = test system: SUM1315MO2
How it was run: as §1

[18] = test system: 600MPE
How it was run: as §1

[19] = test system: HCC1395
How it was run: as §1

[20] = test system: MDAMB415
How it was run: as §1

## CO[C@H]1C[C@@H]2CC[C@@H](C)[C@@](O)(O2)C(=O)C(=O)N2CCCC[C@H]2C(=O)O[C@H]([C@H](C)C[C@@H]2CC[C@@H](OC(=O)C(C)(CO)CO)[C@H](OC)C2)CC(=O)[C@H](C)/C=C(\C)[C@@H](O)[C@@H](OC)C(=O)[C@H](C)C[C@H](C)/C=C/C=C/C=C/1C [Temsirolimus]
[1]
  -log10 GI50: 5.8
[2]
  -log10 GI50: 6.1
[3]
  -log10 GI50: 4.69
[4]
  -log10 GI50: 6.85
[5]
  -log10 GI50: 4.63
[6]
  -log10 GI50: 8.19
[7]
  -log10 GI50: 6.56
[8]
  -log10 GI50: 6.11
[9]
  -log10 GI50: 4.66
[10]
  -log10 GI50: 5.21
[11]
  -log10 GI50: 7.57
[12]
  -log10 GI50: 5.8
[13]
  -log10 GI50: 5.49
[14]
  -log10 GI50: 6.97
[15]
  -log10 GI50: 5.6
[16]
  -log10 GI50: 6.61
[17]
  -log10 GI50: 6.06
[18]
  -log10 GI50: 4.74
[19]
  -log10 GI50: 4.83
[20]
  -log10 GI50: 8.36

## CC(/C=C/C(=O)NO)=C\[C@@H](C)C(=O)c1ccc(N(C)C)cc1 [Trichostatin A]
[1]
  -log10 GI50: 5.18
[2]
  -log10 GI50: 5.32
[3]
  -log10 GI50: 4.97
[4]
  -log10 GI50: 4.99
[5]
  -log10 GI50: 4.62
[6]
  -log10 GI50: 4.79
[7]
  -log10 GI50: 5.09
[8]
  -log10 GI50: 4.22
[9]
  -log10 GI50: 4.77
[10]
  -log10 GI50: 5.14
[11]
  -log10 GI50: 5.01
[12]
  -log10 GI50: 4.77
[13]
  -log10 GI50: 5.06
[14]
  -log10 GI50: 5.3
[15]
  -log10 GI50: 4.86
[16]
  -log10 GI50: 5.13
[17]
  -log10 GI50: 4.31
[18]
  -log10 GI50: 5.19
[19]
  -log10 GI50: 4.5
[20]
  -log10 GI50: 4.73

## Cc1cc(Nc2cc(N3CCN(C)CC3)nc(Sc3ccc(NC(=O)C4CC4)cc3)n2)n[nH]1 [VX-680]
[1]
  -log10 GI50: 5.08
[2]
  -log10 GI50: 6.89
[3]
  -log10 GI50: 4.76
[4]
  -log10 GI50: 5.21
[5]
  -log10 GI50: 4.72
[6]
  -log10 GI50: 6.48
[7]
  -log10 GI50: 5.1
[8]
  -log10 GI50: 4.99
[9]
  -log10 GI50: 6.57
[10]
  -log10 GI50: 5.07
[11]
  -log10 GI50: 4.84
[12]
  -log10 GI50: 6
[13]
  -log10 GI50: 5.68
[14]
  -log10 GI50: 6.79
[15]
  -log10 GI50: 4.76
[16]
  -log10 GI50: 5.75
[17]
  -log10 GI50: 5.8
[18]
  -log10 GI50: 5.06
[19]
  -log10 GI50: 5.21
[20]
  -log10 GI50: 5.58

## CCCC(CCC)C(=O)O [Valproic acid]
[1]
  -log10 GI50: 2.64
[2]
  -log10 GI50: 2.78
[3]
  -log10 GI50: 2.58
[4]
  -log10 GI50: 2.96
[5]
  -log10 GI50: 2.55
[6]
  -log10 GI50: 2.88
[7]
  -log10 GI50: 2.82
[8]
  -log10 GI50: 2.42
[9]
  -log10 GI50: 2.32
[10]
  -log10 GI50: 2.86
[11]
  -log10 GI50: 3.03
[12]
  -log10 GI50: 2.66
[13]
  -log10 GI50: 2.77
[14]
  -log10 GI50: 2.71
[15]
  -log10 GI50: 2.76
[16]
  -log10 GI50: 2.57
[17]
  -log10 GI50: 2.62
[18]
  -log10 GI50: 2.52
[19]
  -log10 GI50: 2.47
[20]
  -log10 GI50: 3.06

## O=C(CCCCCCC(=O)Nc1ccccc1)NO [Vorinostat]
[1]
  -log10 GI50: 4.19
[2]
  -log10 GI50: 4.79
[3]
  -log10 GI50: 3.89
[4]
  -log10 GI50: 3.86
[5]
  -log10 GI50: 3.77
[6]
  -log10 GI50: 4.28
[7]
  -log10 GI50: 4.26
[8]
  -log10 GI50: 3.08
[9]
  -log10 GI50: 3.53
[10]
  -log10 GI50: 4.02
[11]
  -log10 GI50: 4.27
[12]
  -log10 GI50: 3.9
[13]
  -log10 GI50: 3.98
[14]
  -log10 GI50: 4.02
[15]
  -log10 GI50: 3.84
[16]
  -log10 GI50: 3.83
[17]
  -log10 GI50: 3.77
[18]
  -log10 GI50: 4.18
[19]
  -log10 GI50: 3.49
[20]
  -log10 GI50: 3.96
